Assay results taken from article PMC2721767 (Purinergic Signalling, 2008).

Tested on: human washed platelets
Assay: ADP-induced aggregation of human washed platelets
Assay type: cell-based
Conditions: SCH442416 10 μM preapplication, data not shown

`COc1ccc(CCCn2ncc3c2nc(N)n2nc(-c4ccco4)nc32)cc1` [SCH442416, 5-Amino-7-(3-(4-methoxy)phenylpropyl)-2-(2-furyl)pyrazolo[4,3-e]-1,2,4-triazolo[1,5-c]pyrimidine] was tested. Which “effect of antagonist on inhibition of platelet aggregation by 1 µM 10” value (5 μM ADP) did it give?
The value was “completely reversed the inhibitory effect”.

What about the “effect of antagonist alone on aggregation induced by 5 μM ADP” value of the same compound?
Its value is “had no effect on aggregation”.
